Measurements: patent US10428028B2, “HDAC inhibitors” (BIOMARIN PHARMACEUTICAL INC., priority 2013, dated 2019)
Where two headings read alike, the source gives them in different places.

Columns and labels:
HDAC1 = HDAC1 (Homo sapiens (Human), UniProt Q13547); test: HDAC enzyme inhibition assay (Fluor-de-Lys), HDAC1; assay type: biochemical; settings: 2 hours pre-incubation
Description: (§1) The HDAC activity inhibition assay was performed as follows to determine the ability of a test compound to inhibit HDAC enzymatic activity. Serial dilutions of HDAC inhibitors were prepared in HDAC assay buffer (25 mM Tris/HCl, pH 8.0, 137 mM NaCl, 2.7 mM KCl, 1 mM MgCl2, pH 8) in 96-well assay plates (Fisher scientific, #07-200-309) and were pre-incubated for 2 hours at room temperature in the presence of 125 μg/ml BSA and purified HDAC1 (BPS Bioscience, San Diego, Calif., #50051), HDAC2 (BPS Bioscience, #50053), or HDAC3/NcoR2 (BPS Bioscience, #50003) at concentrations of 1.25, 1.32, and 0.167 μg/mL, respectively. Following pre-incubation, Fluor-de-Lys™ substrate (Enzo Life Sciences, Plymouth Meeting, Pa., BML-KI104-0050) was added to a final concentration of 10 μM and plates were further incubated for 30 minutes at room temperature. The enzymatic reaction was stopped by addition of Trichostatin A (Sigma-Aldrich, St Louis, Mo., #T8552, final concentration: 100 nM) and trypsin (MP Biomedicals, Solon, Ohio, #02101179) was added to reach a final concentration of 100 μg/mL. After a 15 minute incubation at room temperature, fluorescence was recorded using a Spectramax M2 fluorometer (Molecular Devices, Sunnyvale, Calif.) with excitation at 365 nm and emission at 460 nm. IC50 values were calculated by using a sigmoidal dose-response (variable slope) equation in GraphPad Prism® 5 for Windows (GraphPad Software, La Jolla, Calif.). Results for selected compounds in the HDAC activity inhibition assay are presented in Table 5 (IC50 ranges: IA>20 μM, A<1 μM, 1<B<5 μM, 5<C<10 μM, 10<D<20 μM, ND: not determined).

HDAC2 = HDAC2 (Homo sapiens (Human), UniProt Q92769); test: HDAC enzyme inhibition assay (Fluor-de-Lys), HDAC2; assay type: biochemical; settings: 2 hours pre-incubation
Sequence of HDAC2 (Q92769 whole entry): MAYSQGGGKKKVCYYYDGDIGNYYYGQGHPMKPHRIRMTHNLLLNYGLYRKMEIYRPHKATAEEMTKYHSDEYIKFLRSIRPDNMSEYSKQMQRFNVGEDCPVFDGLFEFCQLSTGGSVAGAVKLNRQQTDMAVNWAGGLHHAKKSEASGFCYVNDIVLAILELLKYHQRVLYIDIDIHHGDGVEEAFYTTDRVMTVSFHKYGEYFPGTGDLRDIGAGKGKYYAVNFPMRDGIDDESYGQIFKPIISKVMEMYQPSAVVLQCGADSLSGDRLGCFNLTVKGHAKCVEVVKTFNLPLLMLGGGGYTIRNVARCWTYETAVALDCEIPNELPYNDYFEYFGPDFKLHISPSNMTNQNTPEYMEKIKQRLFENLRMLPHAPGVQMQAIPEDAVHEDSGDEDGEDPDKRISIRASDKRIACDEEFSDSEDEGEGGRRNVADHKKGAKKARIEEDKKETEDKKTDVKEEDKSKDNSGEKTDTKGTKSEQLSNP
Description: as §1

HDAC3/NcoR2 = HDAC3/NcoR2 (Homo sapiens (Human), UniProt O15379); test: HDAC enzyme inhibition assay (Fluor-de-Lys), HDAC3/NcoR2; assay type: biochemical; settings: HDAC3/NcoR2, 2 hours pre-incubation
Sequence of HDAC3/NcoR2 (O15379 whole entry): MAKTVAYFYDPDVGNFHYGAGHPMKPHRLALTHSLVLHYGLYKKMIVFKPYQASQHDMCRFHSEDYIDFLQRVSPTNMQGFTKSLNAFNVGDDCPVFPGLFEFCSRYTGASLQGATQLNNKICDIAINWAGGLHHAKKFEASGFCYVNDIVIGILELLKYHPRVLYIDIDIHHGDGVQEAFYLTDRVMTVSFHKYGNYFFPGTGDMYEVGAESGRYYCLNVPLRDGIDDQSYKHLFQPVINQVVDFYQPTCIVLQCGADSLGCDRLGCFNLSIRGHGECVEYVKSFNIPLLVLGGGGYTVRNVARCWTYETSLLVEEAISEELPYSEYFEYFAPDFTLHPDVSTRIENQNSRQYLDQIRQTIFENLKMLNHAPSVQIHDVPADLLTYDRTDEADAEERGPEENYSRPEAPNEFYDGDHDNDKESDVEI
Sequence of HDAC3/NcoR2 (Q9Y618 395-489 partner): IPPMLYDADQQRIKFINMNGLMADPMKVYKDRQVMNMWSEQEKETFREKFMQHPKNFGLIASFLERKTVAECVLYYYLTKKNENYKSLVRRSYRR
Description: as §1

[1] = Brain penetration studies; assay type: in vivo; settings: C57/BL6/J, mouse; mice, s.c. 5 or 50 mg/kg or i.v. 5 mg/kg; Cmax(brain)/Cmax(plasma); read-out: BPR (brain/plasma ratio)
Description: Test compounds were prepared at either 0.5 mg/ml or 5 mg/ml in 30% hydroxypropyl-β-cyclodextrin, 100 mM sodium acetate pH 5.5, 5% DMSO. C57/BL6/J mice were dosed s.c. at 5 mg/kg or 50 mg/kg, or i.v. at 5 mg/kg. Animals were euthanized at pre-dose, 5, 15, 30 min, 1, 2 and 4 hours post-dose and plasma and brain obtained. Three animals per dose per time points were used. The levels of compound in the plasma and brain were determined by standard LC/MS/MS methods. Brain/plasma ratio (BPR) was calculated as the ratio of the Cmax(brain)/Cmax(plasma). The results are shown in Table 5, where IA corresponds to a BPR less than 0.1, D is between 0.1 and 0.2, C is 0.2 to 0.5, B comprises 0.5 to 1 and A is greater than 1.

[2] = Hepatocyte stability and metabolism (parent remaining, acid and OPD formation); assay type: in vitro ADME; settings: human hepatocytes; for % left 6H Hum hep: 5 μM; for OPD: OPD formation by LC-MS/MS after phenylglyoxal derivatisation
Description: The inventors have found, however, that formula (I) compound metabolites are substantially free of OPD when formula (I) compounds are subjected to conditions intended to mimic in vivo metabolism pathways. As used herein, the term “substantially free of OPD” means that OPD was not detected by LC-MS/MS after (i) incubating a formula (I) compound with human, monkey, dog and rat hepatocytes and (ii) treating the metabolite milieu with an acidic solution of phenylglyoxal in an organic solvent (this addition leads to quantitative formation of 2-phenylquinoxaline, which can be easily quantified with a low lower limit of quantitation (LLOQ)). See the Examples section.
To assess the stability and metabolism of RGFP compounds and to quantify the metabolites in hepatocytes. This assay was designed to evaluate the metabolism of RGFP compounds, following their incubation with human, monkey, dog and rat hepatocytes by monitoring either parent drug disappearance or metabolite appearance using LC-MS/MS. The results are shown in Table 5 ((% Left in Hep: IA<10%, 50%<A, 50%>B>30%, 30%>C>10%, ND: not determined).
Procedure: Turn on the water-bath heater to 37° C. Take out the KHB buffer and make sure it is at room temp before use. Prepare 2.5 mM concentration of RGFP compound in DMSO stock. Add 10 μL of above DMSO stock to 2490 μL KHB buffer; final concentration of RGFP compound will be 10 μM. Pre-warm 45 ml InVitro HT Medium to 37° C. in a sterile 50 ml conical tube. Add 1.0 mL Torpedo Antibiotic Mix per 45 mL InVitro HT medium. Transfer 13 mL of warm HT medium with Antibiotic Mix into a 15 mL conical tube. Carefully remove the hepatocyte vials from liquid nitrogen (liquid phase). Immediately immerse the vial into a 37° C. water bath. Shake gently until the ice melts entirely. […] Immediately empty contents of the vial into 13 ml of pre-warmed InVitro HT Medium with antibiotics. Rinse the vial with the HT media just transferred the hepatocytes to, in order to ensure complete transfer. Centrifuge the cell suspension at 600 RPM for 5 minutes at room temperature. […] Add 1.0 ml of KHB (at room temperature) buffer to the tube of hepatocyte pellet. Loosen the cell pellet by gently swirling the centrifuge tube. Transfer 100 μL of above solution to a different tube and add 900 μL of KHB buffer to count the cells. Determine the total cell count and the number of viable cells using the Trypan Blue exclusion method. Once the cell count is obtained, multiply the number by 10 (attributing to the dilution factor). Add required volume of KHB buffer to the tube containing hepatocytes such that the final count will be 2 million cells/mL. Dispense 50 μL of 2 million cells/ml to a 96 well plate and then add 50 μl of DMSO stock to respective wells (such that, the concentration of RGFP compounds is 5 μM and number of cells are 100000 in each well). Place the plates on a shaker in a 37° C. incubator with 5% CO2. Separate plates for each time point are advisable (Time points: 0 h, 1 h, 2 h, and 6 h). After each time point, add 100 μL of quenching solution. Quenching solution is an acetonitrile solution containing RGFP531 (10 μM) internal standard, 0.1% formic acid and phenylglyoxol (400 μM). The formic acid and phenylglyoxal is used for the identification and quantification of OPD as mentioned above. Pipette up and down a few times to ensure a complete stop of reaction. Transfer all the solution into a 1.5 ml tube, vortex thoroughly, and centrifuge at 14000 RPM at 4° C. for 5 minutes to precipitate cell debris. Transfer the 150 μL of supernatant to vials for analysis on LC-MS/MS.
LC-MS/MS parameters for RGFP compounds and metabolites including OPD: LC-MS/MS Parameters for API 2000 QTrap: System: HPLC 1100; Column: Gemini C18, 5 μM 4.6×50 mm; Column Temp: Ambient; MS: API 2000 QTrap (MI mode); Mobile Phase A: HPLC water with 0.05% Formic Acid; Mobile Phase B: Acetonitrile with 0.05% Formic Acid.

[3] = Acid stability determination; assay type: physicochemical; settings: 0.01 M HCl, 50° C., 100 μM
Description: A 100 μM solution of test compound was prepared by dilution of a 10 mM DMSO stock solution in a 0.01 M solution of HCl in deionized water. Immediately after mixing, an aliquot (100 μL) was sampled and analyzed by HPLC/UV. The area under the compound peak was determined and used as the time zero reference point. The remainder of the acid sample was incubated at 50° C. and samples were taken after 2, 4, and 24 hours of incubation. On a few occasions, samples were taken at 30 rather than 24 hours. These were analyzed by the same HPLC/UV method and the area of the peak corresponding to the test compound was measured. Percent remaining at a given time point was then calculated as the ratio of the area under the peak after incubation to that at time zero times 100. In those cases where a 30 hour time point was recorded, the percent remaining at 24 hours was obtained by interpolation of the percent remaining versus time curve assuming a unimolecular process, i.e. a monoexponential decay. Percent remaining after 24 hours incubation are presented in Table 5 below, where A corresponds to more than 60%, B is between 40 and 60%, C covers 20 to 40% and D means less than 20%.

[4] = design: dose or concentration left out as unconfirmed; settings: male rats, oral, 78 weeks, cited from earlier work
[5] = rats, subcutaneous, cited from earlier work

Sequence of HDAC1 (Q13547 whole entry): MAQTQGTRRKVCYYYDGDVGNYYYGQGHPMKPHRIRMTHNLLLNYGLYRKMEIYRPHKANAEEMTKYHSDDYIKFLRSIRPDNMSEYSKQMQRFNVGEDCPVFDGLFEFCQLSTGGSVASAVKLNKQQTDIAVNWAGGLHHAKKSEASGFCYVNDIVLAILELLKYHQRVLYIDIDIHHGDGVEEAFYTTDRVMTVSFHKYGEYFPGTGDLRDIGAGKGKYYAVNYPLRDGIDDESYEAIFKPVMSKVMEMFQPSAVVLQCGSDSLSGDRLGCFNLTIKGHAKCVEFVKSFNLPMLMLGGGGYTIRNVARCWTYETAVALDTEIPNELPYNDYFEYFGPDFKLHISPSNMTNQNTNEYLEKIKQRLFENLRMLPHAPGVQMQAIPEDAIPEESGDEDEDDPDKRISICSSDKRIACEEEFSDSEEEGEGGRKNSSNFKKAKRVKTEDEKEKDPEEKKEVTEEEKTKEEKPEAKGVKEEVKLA

IC50 (HDAC1) [µM] | IC50 (HDAC2) [µM] | IC50 (HDAC3/NcoR2) [µM] | Kp [1] | % left 6H Hum hep [2] | OPD [2] | Acid Stability % Left 24 hr [3] | SMILES | rats with liver tumors ([4]; 8000 low dose) | rats with liver tumors ([4]; 16000 high dose) | tumors ([5]; 45 mg/kg every second day for 11 months) | tumors ([5]; 90 mg/kg every second day for 5 months)
< 1 | < 1 | < 1 | > 1 | C (30%>C>10%) | No OPD | C (C covers 20 to 40%) | Nc1cc(F)ccc1NC(=O)c1ccc2c(cnn2Cc2ccc(F)c(F)c2)c1 [Compound A10] |  |  |  | 
< 1 | < 1 | < 1 | 0.2 to 0.5 | B (50%>B>30%) | No OPD | B (B is between 40 and 60%) | Nc1ccccc1NC(=O)c1ccc2c(cnn2CC2CC2)c1 [Compound A11] |  |  |  | 
 |  |  |  |  |  |  | Nc1ccccc1N [OPD, o-phenylenediamine] | 5 out of 17 | 5 out of 16 | not detected | not detected
